Calls of active or inactive are those of the source. The rule behind the calls is not given here.
Key:
[1] = Cytotoxicity against human SH-SY5Y cells overexpressing alpha-synuclein after 48 hrs by LDH assay; assay type: cell-based; conditions: read-out: LD50
[2] = molecular target: Alpha-synuclein (Homo sapiens) (UniProt P37840); experiment: Induction of alpha-synuclein aggregation in PBS buffer assessed as transition of alpha-synuclein from natively unfolded monomer to cross-beta-sheet conformation after 96 hrs by CD spectroscopy
[3] = Cytotoxicity against human SH-SY5Y cells overexpressing alpha-synuclein after 48 hrs by MTT assay; assay type: cell-based; conditions: read-out: LD50
[4] = molecular target: Alpha-synuclein (Homo sapiens) (UniProt P37840); experiment: Induction of alpha-synuclein aggregation in PBS buffer assessed as fluorescence after 48 hrs by Thioflavin T fluorescence assay
[5] = molecular target: Alpha-synuclein (Homo sapiens) (UniProt P37840); experiment: Induction of alpha-synuclein aggregation in PBS buffer assessed as alpha-synuclein monomer depletion after 96 hrs by size exclusion chromatography
[6] = molecular target: Alpha-synuclein (Homo sapiens) (UniProt P37840); experiment: Induction of alpha-synuclein aggregation in PBS buffer assessed as fluorescence after 96 hrs by Thioflavin T fluorescence assay
[7] = molecular target: Alpha-synuclein (Homo sapiens) (UniProt P37840); experiment: Induction of alpha-synuclein aggregation in PBS buffer assessed as fluorescence after 330 hrs by Thioflavin T fluorescence assay
[8] = molecular target: Alpha-synuclein (Homo sapiens) (UniProt P37840); experiment: Induction of alpha-synuclein aggregation in PBS buffer assessed as formation of alpha-synuclein fibrils after 48 hrs by electron microscopy
[9] = molecular target: Alpha-synuclein (Homo sapiens) (UniProt P37840); experiment: Induction of alpha-synuclein aggregation in PBS buffer assessed as fluorescence after 72 hrs by Thioflavin T fluorescence assay
[10] = molecular target: Alpha-synuclein (Homo sapiens) (UniProt P37840); experiment: Induction of alpha-synuclein aggregation in PBS buffer assessed as fluorescence after 44 to 305 hrs in presence of competitive Schiff-base inhibitor aminoguanidine by Thioflavin T fluorescence assay
[11] = molecular target: Alpha-synuclein (Homo sapiens) (UniProt P37840); experiment: Induction of alpha-synuclein aggregation in PBS buffer assessed as formation of alpha-synuclein fibrils after 96 hrs by electron microscopy
[12] = molecular target: Alpha-synuclein (Homo sapiens) (UniProt P37840); experiment: Induction of alpha-synuclein aggregation in PBS buffer assessed as alpha-synuclein monomer depletion after 48 hrs by size exclusion chromatography
[13] = molecular target: Alpha-synuclein (Homo sapiens) (UniProt P37840); experiment: Induction of alpha-synuclein aggregation in PBS buffer assessed as transition of alpha-synuclein from natively unfolded monomer to cross-beta-sheet conformation after 48 hrs by CD spectroscopy
[14] = molecular target: Alpha-synuclein (Homo sapiens) (UniProt P37840); experiment: Induction of alpha-synuclein aggregation in PBS buffer assessed as transition of alpha-synuclein from natively unfolded monomer to cross-beta-sheet conformation after 330 hrs by CD spectroscopy
[15] = molecular target: Alpha-synuclein (Homo sapiens) (UniProt P37840); experiment: Induction of alpha-synuclein aggregation in PBS buffer assessed as alpha-synuclein monomer depletion after 72 hrs by size exclusion chromatography
[16] = test system: SH-SY5Y; experiment: Cytotoxicity against human SH-SY5Y cells overexpressing alpha-synuclein at 20 uM after 48 hrs by MTT assay; assay type: cell-based
[17] = molecular target: Alpha-synuclein (Homo sapiens) (UniProt P37840); experiment: Induction of alpha-synuclein aggregation in PBS buffer assessed as transition of alpha-synuclein from natively unfolded monomer to cross-beta-sheet conformation after 72 hrs by CD spectroscopy
[18] = test system: SH-SY5Y; experiment: Cytotoxicity against human SH-SY5Y cells overexpressing alpha-synuclein at 20 uM after 48 hrs by LDH assay; assay type: cell-based

Activity [15] | Activity [17] | Structure (SMILES) | CC50 at 48 h [1] | Activity [2] | CC50 at 48 h [3] | Activity [4] | Activity [5] | Activity [6] | Activity [7] | Activity [8] | Activity [9] | Activity [10] | Activity [11] | Activity [12] | Activity [13] | Activity [14] | Activity [16] | Activity [18]
– | – | CC(C)CCC[C@@H](C)[C@H]1CC[C@H]2[C@H](CC(=O)O)[C@@H]([C@@]3(C)CC[C@H](O)CC3=O)CC[C@]12C | 55 µM | 60% | 55 µM | 220 a.u. | 70% | 410 a.u. | 500 a.u. | Active | 330 a.u. | Active | Active | 50% | 40% | 100% | – | –
19% | 4% | CC(C)CCC[C@@H](C)[C@H]1CC[C@H]2[C@@H]3CC=C4C[C@@H](O)CC[C@]4(C)[C@H]3CC[C@]12C [CHOLESTEROL] | – | 4% | – | 0 a.u. | 70% | 30 a.u. | 120 a.u. | – | 25 a.u. | – | – | 2% | 0% | 100% | Non-toxic | Non-toxic
